Test results as given in patent US20050130938A1, “Method for alleviating syndromes and conditions of discomfort of the mammalian intestinal and genito-urinary tracts” (AkPharma Inc., priority 2001, published 2005).

How the values were obtained:
[1] = test system: IBS-related symptoms and conditions; experiment: 'pre-study' IBS survey of patients taking CGP tablets for 28 days; type: in vivo, human
Excerpt: A ‘pre-study’ IBS survey was taken in a large private gastroenterology practice in southern New Jersey. Each of the patients in the survey consumed a series of 2-tablet doses of CGP, in which each tablet contained 0.335 grams CGP so that each dosage was 0.67 gram of CGP. Two tablets were consumed at breakfast, lunch, and dinner, regardless of the acidity of the foods consumed at the meals, and two additional tablets were consumed with any snack eaten during the day, regardless of the acidity of the snack. The total consumption by each patient varied from 8-10 tablets per day up to 20 tablets per day.
The survey included twelve patients, eight of whom completed graphs of their 28-day experience with CGP. The experiences of the four remaining patients were written up by the medical supervisor based on oral reports. […] The patients marked daily, in 10% increments and 10% decrements, whether they felt up to 100% better or down to 100% worse as a result of the treatment.

[2] = test system: Interstitial Cystitis Symptoms; conditions: key exacerbant foods and beverages; cited from earlier work
[3] = test system: Food-Sensitive Interstitial Cystitis Patients; conditions: cited from earlier work
[4] = test system: Interstitial Cystitis; conditions: ICSG members; cited from earlier work
[5] = test system: astrocytes and neurons; conditions: culture; cited from earlier work
[6] = cited from earlier work
[7] = test system: intestinal musculature; conditions: some cases; product withdrawn December 2000; cited from earlier work
[8] = test system: excised animal uterus tissue; conditions: cited from earlier work; for action on the uterus: in vitro, excised animal uterus tissue

## O=P([O-])([O-])OCC(O)CO.[Ca+2] (stereo not drawn) [CGP, 1,2,3-propanetriol, mono(dihydrogen phosphate) calcium salt (1:1)]
[1]; patients without graphs, one of four discontinued
  oral reports to the medical supervisor: helpful and effective at relieving symptoms and/or pain
[1]; self-rated daily graph
  effect on pain and/or symptoms in two of the eight patients who completed graphs (flatliners): no effect
[1]; self-rated daily graph, some going to 100% improvement and maintaining that level
  results of the remaining six patients who completed graphs: good to remarkable
[1]; single patients, one value each
  drop on the self-rated scale on the day without CGP: 10-20% and “50% better” to “50% worse” and “100% better” to “40% worse.”
[1]; three patients, returned to improved state upon resuming treatment
  condition on the one day on which CGP was not ingested: marked condition deterioration
[1]; twelve patients, oral 0.67 gram per dose with meals and snacks, 28 days
  patients showed major improvements in IBS-related symptoms and conditions: 75%
[2]
  patients reported a reduction in [urinary] urgency: 61.3%
  patients reported a reduction in pain and discomfort: 70.4%
[3]; decreased from 76.7%
  pain as a result of consuming CGP: 41%
[3]; decreased from 79.5%
  urinary urgency as a result of consuming CGP: 51%
[4]
  participants enabled to tolerate a wider variety of foods of an acidic nature: 81%
  participants found it to be beneficial: 69%
[5]
  effect on astrocytes in vitro: enhance the proliferation and differentiation of astrocytes
  effect on neurons compared with calcium chloride and non-reagent added media: significant survival effects
[6]; regardless of the pH level in the stomach
  dissociation of calcium from the anion: instantly dissociated

## Cc1[nH]cnc1CN1CCc2c(c3ccccc3n2C)C1=O [Lotronex]
[7]
  adverse events in use: intestinal ischemic collapse

## O=C([O-])[O-].[Ca+2] [calcium carbonate, reference compound]
[6]; estimated, only in an acidic milieu
  time after ingestion until calcium is released: 20 to 30 min

## O=P([O-])([O-])OCC(O)CO.[Mg+2] (stereo not drawn) [magnesium glycerophosphate]
[8]
  anti-spasmodic behavior on the intestine: exclude the intestine
  action on the uterus: uterine anti-spasmodic agents

## O=P([O-])([O-])OC(CO)CO.[Na+].[Na+] [sodium glycerophosphate, Sodium Beta-Glycerophosphate]
[8]
  anti-spasmodic behavior on the intestine: exclude the intestine
  action on the uterus: uterine anti-spasmodic agents
